In general, IC50 refers to the concentration that gives 50% inhibition.

The structures appear in SMILES notation.

One assay concerns IL-1β. Description: In-vivo LPS and ATP induced IL-1β assay. Conditions: Mus musculus, 2.5 h; Dose 10 mpk, po; female C57 mice; serum IL-1β by ELISA; read-out: % IL-1β inhibition in LPS + ATP challenged C57 mice. Here is the method: All the animal experiments were carried out in female rats and mice, bred in-house. Animals were housed in groups of 6 animals per cage, for a week, in order to habituate them to vivarium conditions (25 f 4° C., 60-65% relative humidity, 12:12 h light:dark cycle, with lights on at 7.30 am). All the animal experiments were carried out according to the internationally valid guidelines following approval by the ‘Zydus Research Center animal ethical committee’.
Female C57 mice (6-8 weeks) received intraperitoneal injection of 50 μg/mouse of lipopolysaccharide (LPS) in PBS. Animals were treated immediately with the test compounds or the vehicle. After 2 h of LPS injection, animals were administered with ATP at 12.5 mg/mouse dissolved in PBS via intraperitoneal route. After 30 minutes of ATP injection, serum was collected for IL-1β estimation by ELISA.
Regarding `CCCN1CCC[C@@H]1/C=C/S(=O)(=O)NC(=O)Nc1c2c(cc3c1CCC3)CCC2` [Example 4, (R,E)-N-((1,2,3,5,6,7-hexahydro-s-indacen-4-yl)carbamoyl)-2-(1-propylpyrrolidin-2-yl)ethene-1-sulfonamide], the inhibition in vivo at 10 mg/kg came out at 90%.
On to `O=C(Nc1c2c(cc3c1CCC3)CCC2)NS(=O)(=O)/C=C/[C@H]1CCCN1CC1CC1` [Example 5, (R,E)-2-(1-(cyclopropylmethyl)pyrrolidin-2-yl)-N-((1,2,3,5,6,7-hexahydro-s-indacen-4-yl)carbamoyl)ethene-1-sulfonamide], for which the inhibition in vivo at 10 mg/kg is 70%.
Still for that read-out and setting: the figure for `O=C(Nc1c2c(cc3c1CCC3)CCC2)NS(=O)(=O)/C=C/[C@H]1CCCN1C1CCSCC1` [Example 40, (R,E)-N-((1,2,3,5,6,7-hexahydro-s-indacen-4-yl)carbamoyl)-2-(1-(tetrahydro-2H-thiopyran-4-yl)pyrrolidin-2-yl)ethene-1-sulfonamide] is 86%; for `CC(=O)N1CCC[C@H]1/C=C/S(=O)(=O)NC(=O)Nc1c2c(cc3c1CCC3)CCC2` [Example 69, (S,E)-2-(1-acetylpyrrolidin-2-yl)-N-((1,2,3,5,6,7-hexahydro-s-indacen-4-yl)carbamoyl)-ethenesulfonamide] it is 84%.
On the same count and under the same terms, the value for `CC(C)c1cc(F)cc(C(C)C)c1NC(=O)NS(=O)(=O)/C=C/[C@@H]1CCCN1C` [Example 77, (S,E)-N-((4-fluoro-2,6-diisopropylphenyl)carbamoyl)-2-(1-methylpyrrolidin-2-yl)ethene-1-sulfonamide] was 47%; that for `C[C@]1(/C=C/S(=O)(=O)NC(=O)Nc2c3c(cc4c2CCC4)CCC3)CCCN1S(C)(=O)=O` [Example 55, (R,E)-N-((1,2,3,5,6,7-hexahydro-s-indacen-4-yl)carbamoyl)-2-(2-methyl-1-(methylsulfonyl)-pyrrolidin-2-yl)ethene-1-sulfonamide] was 82.5%.

The test system of another assay is IL-1β. The assay can be described thus: In-vitro IL-1β inhibition assay in PMA-differentiated, LPS-primed, ATP-stimulated THP1 cells. It counts as cell-based. Conditions: Homo sapiens, THP-1; THP1 monocytes differentiated with PMA, primed with 500 ng/mL LPS, compound 30 min, 5 mM ATP 1 hr; IL-1β in supernatant; read-out: IC50 (nM), invitro IL-1β inhibitory activity. Here is the method:
THP1 monocytes were differentiated with PMA (100 ng/mL) and incubated at 37 deg C. for 20 hrs in presence of 5% CO2. 2×10^5 differentiated cells were plated per well of 96 well tissue culture plates. The cells were primed using 500 ng/mL Lipopolysaccharide and incubating for 4 h under the same condition. The cells were then treated with various concentrations of the compounds for 30 min followed by treatment with 5 mM ATP for 1 hr. The supernatants were collected and analyzed by IL-1b (Mabtech Cat #3415-1H-20) or TNF-α (Mabtech; Cat #3510-1H-20) detection kit. The data were analyzed using GraphPad Prism V7.0. Dose Response Curve (DRC) was constructed to determine the IC50 value by fitting percentage […] data to the GraphPad Prism using nonlinear regression analysis.
Take `CCCN1CCC[C@@H]1/C=C/S(=O)(=O)NC(=O)Nc1c2c(cc3c1CCC3)CCC2` [Example 4, (R,E)-N-((1,2,3,5,6,7-hexahydro-s-indacen-4-yl)carbamoyl)-2-(1-propylpyrrolidin-2-yl)ethene-1-sulfonamide]: the IC50 was determined as 7.4 nM.
